How the values were obtained:
[1] = test system: VEGF-induced DLL4 and NR4 A1 mRNA expression; assay: RT-qPCR of VEGF-induced DLL4 and NR4A1 mRNA in HUVECs; type: cell-based, human; conditions: 0.5 µM compound, VEGF 40 ng/mL
Experimental: (§1) EA.hy926 cells or HUVECs were seeded in 6-well plates and cultured until they reached 80% confluence. The medium was replaced with a serum-free medium for a 4 h starvation. For EA.hy926 cells, the compounds were added at a final concentration of 0.5 μM for 30 min, followed by BMP9 (1 ng/mL), TGF-β2 (1 ng/mL), or vehicle control addition and cultured for another 3 h before the cells were harvested. To investigate VEGF-induced cellular response, HUVECs were exposed to VEGF (40 ng/mL) for 1 h after 30 min pre-treatment with the compounds.
(§2) After samples were collected, total RNA was isolated and purified using the NucleoSpin RNA II kit (740955, BIOKE, Leiden, the Netherlands), following the manufacturer’s instructions. Then, the mRNA was used as a template to synthesize cDNA by performing reverse transcription with the RevertAid First Strand cDNA Synthesis Kit (K1621, ThermoFisher Scientific). Gene expression levels were determined by RT-qPCR analysis using the GoTaq qPCR Master Mix (A6001, Promega, Madison, WI, USA) and normalized to GAPDH expression. All the experiments were repeated three times, and results from three biologically independent experiments are shown.

[2] = test system: BMP9-induced ID1, ID3, and SMAD6 mRNA expression; assay: RT-qPCR of BMP9-induced ID1, ID3 and SMAD6 mRNA in EA.hy926 cells; type: cell-based, human; conditions: 0.5 µM compound, BMP9 1 ng/mL
Experimental: as §1, §2

[3] = test system: TGF-β2-induced SMAD2 phosphorylation; assay: Western blot of TGF-β2-induced SMAD2 phosphorylation in EA.hy926 cells; type: cell-based, human; conditions: TGF-β2 1 ng/mL
Experimental: (§3) EA.hy926 cells or HUVECs were seeded in 6-well plates and starved in a serum-free medium for 4 h after reaching 80% confluence. The compounds were added 30 min prior to stimulation with the corresponding ligands. EA.hy926 cells were incubated with BMP9 (1 ng/mL), BMP6 (50 ng/mL), TGF-β2 (1 ng/mL), or vehicle control for 1 h. For HUVECs, after 4 h starvation, the cells were pre-treated with or without the indicated compounds for 30 min and subsequently stimulated with VEGF (40 ng/mL) for 10 min. The cells were harvested and lysed in radioimmunoprecipitation assay (RIPA) lysis buffer containing 1× complete protease inhibitor cocktail (11836153001, Roche, Basel, Switzerland). The protein concentration was determined using the DC protein assay kit (5000111, Bio-Rad). After adding loading buffer, the samples were boiled and proteins separated by sodium dodecyl sulfate polyacrylamide gel electrophoresis (SDS-PAGE). Proteins in the gel were transferred to polyvinylidene difluoride (PVDF) membranes (IPVH00010, Merck Millipore, Burlington, MA, USA) and immunoblotted with 1000 times diluted primary antibodies: phospho-SMAD1/5 (9516 S, Cell Signaling Technology, Leiden, The Netherlands), phospho-SMAD2 (pSMAD2, home-made), SMAD1 (6944 S, Cell Signaling Technology), SMAD2 (3103 S, Cell Signaling Technology), phospho-extracellular signal-regulated kinase/mitogen-activated protein kinase (pERK/MAPK, 4370, Cell Signaling Technology), mitogen-activated protein kinase/ERK1/2 (ERK1/2/MAPK, 9102 S, Cell Signaling Techonol), VEGFR (2479, Cell Signaling), pVEGFR (2478, Cell Signaling Technology), α/β-Tubulin (2148, Cell Signaling Technology), glyceraldehyde 3-phosphate dehydrogenase (GAPDH, MAB374, Merck Millipore). Clarity™ enhanced chemiluminescence (ECL) reagent (1705060, Bio-Rad) was used to visualize secondary antibodies conjugated to horseradish peroxidase (HRP). GAPDH or Tubulin was used as protein loading controls. […] The protein bands were quantified using ImageJ (National Institutes of Health, Bethesda, MD, USA).

TGFBR2 = TGFBR2 (Homo sapiens, UniProt P37173); assay: radiometric protein kinase assay, affinity (Kd); type: binding
Experimental: The binding interaction profile of the compounds for ALK1–6, ACVR2A, ACVR2B, and TGFβR2 was determined by using radiometric protein kinase assay. For each compound, ten different concentrations (from 3 × 10^−6 M to 9 × 10^−11 M) were used in the protein kinase reaction.

[4] = test system: BMP9-induced SMAD1/5 phosphorylation; assay: Western blot of BMP9-induced SMAD1/5 phosphorylation in EA.hy926 cells; type: cell-based; conditions: Homo sapiens, EA.hy 926, BMP9 1 ng/mL, 1 h, read-out: IC50 on BMP9-induced pSMAD1/5 response
Experimental: as §3

EA.hy926 cells = assay: MTS assay; type: cell-based, human; conditions: 0.5 μM, day 1, 2 and 3
Experimental: The MTS assay was used to measure the metabolic activity and viability of the cells. Around 5 × 10^3 EA.hy926 cells were seeded and cultured overnight in a 96-well plate and then cultured in the normal growth medium, which contained the indicated compounds and ligands. The MTS tetrazolium was measured according to the manufacturer’s protocol using an MTS Assay Kit (G3580, Promega). In brief, after exposing the cells in set conditions for 1, 2, and 3 days, 20 µL of MTS reagent was added to 100 μL cell growth medium per well and incubated for 4 h at 37 °C. Thereafter, absorbance at 490 nm was measured using a PerkinElmer […]. All the experiments were repeated at least three times, and representative experiments are shown.

PTK2 = target: T1, PTK2 (Homo sapiens, UniProt Q05397); assay: radiometric kinase profiling (33 PanQinase); type: biochemical; conditions: read-out: Inhibitory effect (%) PTK2
T1 construct: purchased ProQinase (33PanQinase Activity Assay)
How it was run: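 Enzyme/substrate mixes were incubated with [γ-33P]-ATP and compound (added as a 0.1 μM solution in 10% DMSO) at 30 °C for 60 min, then stopped with H3PO4 and washed with NaCl. 33P incorporation was scintillation-counted, and residual activity (%) was normalized to untreated control and background.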

T1 sequence (Q05397 whole entry): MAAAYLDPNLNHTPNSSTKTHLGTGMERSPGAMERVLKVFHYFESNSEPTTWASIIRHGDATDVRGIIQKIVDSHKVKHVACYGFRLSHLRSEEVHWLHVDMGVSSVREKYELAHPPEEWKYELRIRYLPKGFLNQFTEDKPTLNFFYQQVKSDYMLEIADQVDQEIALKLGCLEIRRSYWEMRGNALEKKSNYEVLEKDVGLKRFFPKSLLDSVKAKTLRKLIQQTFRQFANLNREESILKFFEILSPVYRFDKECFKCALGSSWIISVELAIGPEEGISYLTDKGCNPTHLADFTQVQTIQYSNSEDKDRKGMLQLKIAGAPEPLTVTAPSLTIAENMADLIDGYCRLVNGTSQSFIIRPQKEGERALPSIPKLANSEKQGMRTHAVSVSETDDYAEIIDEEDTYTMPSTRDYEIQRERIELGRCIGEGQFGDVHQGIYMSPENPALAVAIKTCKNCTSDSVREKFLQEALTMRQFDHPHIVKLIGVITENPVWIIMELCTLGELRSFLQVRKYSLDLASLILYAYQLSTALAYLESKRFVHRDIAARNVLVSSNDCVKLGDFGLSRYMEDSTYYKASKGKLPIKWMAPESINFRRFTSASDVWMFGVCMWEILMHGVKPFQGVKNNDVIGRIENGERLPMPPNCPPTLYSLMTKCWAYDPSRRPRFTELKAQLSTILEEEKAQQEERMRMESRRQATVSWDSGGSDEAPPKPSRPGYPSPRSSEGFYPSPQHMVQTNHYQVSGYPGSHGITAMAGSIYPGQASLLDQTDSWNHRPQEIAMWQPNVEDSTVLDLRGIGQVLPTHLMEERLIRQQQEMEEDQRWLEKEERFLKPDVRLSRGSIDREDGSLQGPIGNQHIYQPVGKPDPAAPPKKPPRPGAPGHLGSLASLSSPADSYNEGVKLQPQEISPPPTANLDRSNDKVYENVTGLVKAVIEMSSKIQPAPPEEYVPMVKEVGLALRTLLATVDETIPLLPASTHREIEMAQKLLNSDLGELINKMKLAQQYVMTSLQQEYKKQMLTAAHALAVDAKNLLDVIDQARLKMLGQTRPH
TGFBR2, sequence (P37173 23-567): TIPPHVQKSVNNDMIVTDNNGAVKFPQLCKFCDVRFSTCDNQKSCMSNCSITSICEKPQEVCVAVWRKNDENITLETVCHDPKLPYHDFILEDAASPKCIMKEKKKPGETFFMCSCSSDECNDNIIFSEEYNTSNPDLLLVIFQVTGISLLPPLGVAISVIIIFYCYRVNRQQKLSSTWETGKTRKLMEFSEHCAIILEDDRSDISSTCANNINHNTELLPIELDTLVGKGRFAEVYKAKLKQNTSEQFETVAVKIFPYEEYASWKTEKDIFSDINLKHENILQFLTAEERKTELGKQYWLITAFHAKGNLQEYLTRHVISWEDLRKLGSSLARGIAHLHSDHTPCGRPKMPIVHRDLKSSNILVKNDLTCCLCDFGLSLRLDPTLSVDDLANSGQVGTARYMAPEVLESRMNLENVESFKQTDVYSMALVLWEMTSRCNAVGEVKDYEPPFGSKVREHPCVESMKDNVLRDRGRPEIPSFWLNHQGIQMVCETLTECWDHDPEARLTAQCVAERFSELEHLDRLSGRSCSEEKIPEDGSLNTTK

**Q.** Which results are given for CN1CCC(=O)NCCNc2ccn3ncc(c3n2)-c2cccc(c2)C1 [OD29]?
**A.** effect on VEGF-induced DLL4 mRNA expression [1]: inhibited; effect on VEGF-induced NR4 A1 mRNA expression [1]: inhibited; effect on BMP9-induced ID1, ID3 and SMAD6 mRNA expression [2]: inhibited; effect on TGF-β2-induced SMAD2 phosphorylation ([3]; dose range): nearly no inhibitory effect; Kd (TGFBR2): 76 nM; IC50 [4]: 430 nM; effect on EA.hy926 cell viability (MTS) (EA.hy926 cells): no significant effects; inhibition at 0.1 µM (PTK2): -0.22%

**Q.** With CNC(=O)c1ccccc1Sc1ccc2c(/C=C/c3ccccn3)n[nH]c2c1 [Axitinib, reference compound] as the compound, how does the “effect on VEGF-induced DLL4 mRNA expression” value [1] read?
**A.** Its value is “inhibited”.

**Q.** What about the “effect on VEGF-induced NR4 A1 mRNA expression” value [1] of the same compound?
**A.** The value was “inhibited”.

**Q.** What about the “effect on EA.hy926 cell viability (MTS)” value (EA.hy926 cells) of the same compound?
**A.** The value was “no significant effects”.

**Q.** With CN1CCc2cccc(c2)Nc2nccc(n2)N2CCCc3cc(ccc32)C1 [OD16] as the compound, how does the “effect on VEGF-induced DLL4 mRNA expression” value [1] read?
**A.** Its value is “did inhibit”.

**Q.** And the “effect on BMP9-induced ID1, ID3 and SMAD6 mRNA expression” value [2]?
**A.** The value was “inhibited”.

**Q.** What about the “effect on TGF-β2-induced SMAD2 phosphorylation” value ([3]; dose range) of the same compound?
**A.** Its value is “in a dose-dependent manner but far less efficiently than LDN-193189”.

**Q.** And the Kd (TGFBR2)?
**A.** The Kd was 380 nM.

**Q.** What about the IC50 [4] of the same compound?
**A.** The IC50 was 80 nM.

**Q.** What about the “effect on EA.hy926 cell viability (MTS)” value (EA.hy926 cells) of the same compound?
**A.** The value was “no significant effects”.

**Q.** And the inhibition at 0.1 µM (PTK2)?
**A.** Its inhibition at 0.1 µM is 17.1%.

**Q.** Which results are given for c1ccc2c(-c3cnn4cc(-c5ccc(N6CCNCC6)cc5)cnc34)ccnc2c1 [LDN-193189, reference compound]?
**A.** effect on BMP9-induced ID1, ID3 and SMAD6 mRNA expression [2]: inhibited; effect on TGF-β2-induced SMAD2 phosphorylation ([3]; 0.1 µM compound): effectively attenuated; Kd (TGFBR2): 16 nM; IC50 [4]: 110 nM; effect on EA.hy926 cell viability (MTS) (EA.hy926 cells): markedly attenuated; inhibition at 0.1 µM (PTK2): 4.03%
